What was measured:
CD4 T cells = experiment: Annexin/PI apoptosis staining, CD4; type: cell-based, mouse; details: 3 μM or 10 μM, 72 hours, vs DMSO
Experimental: Lymph nodes and spleen were isolated from wild-type C57BL/6N mice. Tissue was mechanically dissociated with the back of a syringe plunger and passed through a 70 M filter. […] Treated cells were incubated at 37° C., 5% CO2 for the designed study duration.
Treated CD3 T cells were prepared following the in vitro T cell activation method and incubated for 72 hours at 37° C., 5% CO2.

BM-MDSCs [1] = details: differentiating BM-MDSCs, 3 μM or 10 μM, 72 hours
Experimental: (§1) Bone marrow cells were isolated by flushing the tibia and femurs of wild-type C57BL/6N mice. […] To generate BM-MDSCs, 3×10^6 cells were plated in a 6-well dish and incubated at 37° C., 5% CO2 for 96 hours. For treatment, drugs were administered at either 3 μM or 10 μM concentrations and added to the BM-MDSC cell culture well 24 hours after plating.
Protein concentration was quantified using a BCA protein assay kit (Thermo #A53225). […] of protein diluted with 1×LDS sample buffer (Life Technologies #B0008) and 1×sample reducing agent (Life Technologies #B0009), were denatured at 95° C. for 5 minutes. Denatured T cell protein was resolved using a 10% Bolt Bis-Tris plus protein gel (Thermo #NW00102BOX) and denatured BM-MDSC protein was resolved using an 8% Bolt Bis-Tris plus protein gel (Thermo #NW00082BOX). Gels were transferred to a PVDF membrane (Invitrogen #IB401002) using a seven-minute P3 program on an Invitrogen iBlot dry transfer system. Membranes were then blocked for one hour using 5% nonfat dry milk in TBS-T, washed three times with TBS-T and probed with primary antibody diluted with 5% BSA in TBS-T overnight at 4° C. with gentle rocking. Primary antibody was removed, and membranes were washed three times with TBS-T followed by secondary antibody diluted in TBS-T at room temperature for one hour with gentle rocking. […]

BM-MDSCs [2] = experiment: Arginase-I and iNOS immunoblot in BM-MDSCs; type: cell-based, mouse; details: for arginase-I levels, reduction compared to DMSO / iNOS production, reduction compared to DMSO: 72 hours
Experimental: as §1
Protein concentration was quantified using a BCA protein assay kit (Thermo #A53225). […] of protein diluted with 1×LDS sample buffer (Life Technologies #B0008) and 1×sample reducing agent (Life Technologies #B0009), were denatured at 95° C. for 5 minutes. Denatured T cell protein was resolved using a 10% Bolt Bis-Tris plus protein gel (Thermo #NW00102BOX) and denatured BM-MDSC protein was resolved using an 8% Bolt Bis-Tris plus protein gel (Thermo #NW00082BOX). Gels were transferred to a PVDF membrane (Invitrogen #IB401002) using a seven-minute P3 program on an Invitrogen iBlot dry transfer system. Membranes were then blocked for one hour using 5% nonfat dry milk in TBS-T, washed three times with TBS-T and probed with primary antibody diluted with 5% BSA in TBS-T overnight at 4° C. with gentle rocking. Primary antibody was removed, and membranes were washed three times with TBS-T followed by secondary antibody diluted in TBS-T at room temperature for one hour with gentle rocking. […] Secondary antibodies used were anti-mouse-HRP (Kindle Biosciences #R1005) and anti-rabbit-HRP (Kindle Biosciences #R1006). Analysis was conducted using ImageJ (NIH Bethesda, MD) and normalized to the housekeeping protein β-actin.

BM-MDSCs [3] = experiment: MDSC suppression assay; type: cell-based, mouse; details: for percent proliferation of CD3 T cells co-cultured with treated BM-MDSCs: DMSO control 40.73%
Experimental: 24-well plates were coated with […] anti-mouse CD3e and anti-mouse CD28 resuspended in PBS for two hours at 37° C., 5% C02. PBS containing coating antibodies were then removed and 1×10^6 naïve CFSE CD3 T cells in 1 ml was added to each well. Treated BM-MDSCs were removed using a rubber policeman. […] Cells were harvested and stained following the immune profiling by flow cytometry method. MDSC suppressive capacity was measured by their ability to inhibit CD3 T cell proliferation measured by CFSE dilution.

CD8 T cells = experiment: Single-cell RNA sequencing; type: cell-based, mouse; details: 10 μM, 16 hours
Experimental: Treated CD8 T cells were prepared following the in vitro T cell activation method and incubated for 16 hours at 37° C., […]. Treated T cells were mixed with treated BM-MDSCs at a […] (T cell): 30% (BM-MDSC) ratio moments before analysis. 10,000 cells with greater than 90% viability were used in the analysis at a concentration of 1,000 cells/μl. Barcoded cDNA libraries were prepared using a chromium next GEM single-cell 3′ reagent kit v3.1 (10× Genomics #1000127) following the manufacturer's instructions. […] (Agilent, Santa Clara, CA) DNA was subsequently quantified by fluorometry using a Qubit dsDNA high sensitivity assay kit (Invitrogen #Q32854). DNA libraries were pooled in equimolar ratios and sequenced using an Illumina NextSeq 500 (Illumina, San Diego, CA) following 10× Genomics' instructions. […] Doublets were subsequently removed using DoubletFinder (https://github.com/chris-mcginnis-ucsf/DoubletFinder). An unsupervised clustering and plotting using UMAPs was completed on the remaining cells. CD8 T cells were identified by first conducting CD3 followed by CD8 refinement and reclustering. To characterize the CD8 subsets, the top 50 differentially expressed genes between each subcluster were compared against publicly available datasets, and known genes associated with activation, exhaustion, and memory T cell states. To determine changes in metabolism and cytotoxicity, a curated list of genes associated with glucose, fatty acid, lipid metabolism, and cytotoxicity were generated. Average gene expression by treatment group was determined for each gene and visualized by heatmap.

B16 = experiment: In vivo adoptive cellular transfer, pmel-I, B16 tumor; parameters: species or system mouse; details: T cells pre-treated with 10 μM; B16 tumor bearing mice; vs sham and DMSO pre-treated
Experimental: C57BL/6N mice were injected with 3×10^5 B16-OVA or B16 subcutaneously in the right flank. Five days after injection, mice were administered 200 μg cyclophosphamide monohydrate (Sigma #C73971G) dissolved in PBS by intraperitoneal injection to induce minor lymphodepletion. 48 hours after lymphodepletion, mice were intravenously adoptively transferred 2.5×10^6 CD8 OT-I or CD8 […] pre-treated ex vivo following the in vitro T cell activation method. Tumor growth rates were determined by tumor volume measurement beginning on day four and continuing three times per week for the study duration. Tumor volumes were determined by the ellipsoid formula: [(Length×Width^2)/2]. At the end of study, tumors were either fixed in 10% formalin or dissociated into a single-cell suspension for flow cytometry. Single-cell suspension was performed by chopping tumor tissue with scissors followed by a 30-minute incubation at 37° C. with 100 µg/ml DNase I (Roche #10104159001) and 0.5 U/ml Liberase (Roche #05401127001) in PBS. Solution was then diluted with cRPMI-1640 and passed through a 70 μm cell strainer, pelleted and resuspended in ACK lysis buffer to remove erythrocytes. Cells were then counted, filtered through a 70 μm cell strainer, and 10×10^6 cells were aliquoted and stained following the immune profiling by flow cytometry method.

B16-OVA = experiment: In vivo therapeutic vaccination and tumor analysis; parameters: species or system mouse; details: 30 mg/kg orally, with SIINFEKL in IFA vaccination and boosts
Experimental: C57BL/6N mice were injected with 3×10^5 B16-OVA subcutaneously in the right flank. Five days after injection, mice were administered 200 μg cyclophosphamide dissolved in PBS by intraperitoneal injection to induce minor lymphodepletion. 48 hours after lymphodepletion, mice were intravenously adoptively transferred 2.5×10^6 labeled CD8 OT-I T cells. […]. Tumor growth rates were determined by tumor volume measurement beginning on day four and continuing three times per week for the study duration. Tumor volumes were determined by the ellipsoid formula: [(Length×Width^2)/2].

Compound: O=c1nc(OC[C@@H]2COCCO2)cc2n1CCc1cc(C#CC3CC3)ccc1-2 [GLPG1205, 9-Cyclopropylethynyl-2-((S)-1-[1,4]dioxan-2-ylmethoxy)-6,7-dihydropyrimido[6,1-a]isoquinolin-4-one]
- CD4 apoptosis (Annexin/PI) (CD4 T cells): did not elicit any significant changes
- GPR84 expression (BM-MDSCs [1]): only neared statistical significance
- arginase-I levels, reduction compared to DMSO (BM-MDSCs [2]; 3 μM): 1.79 times
- iNOS production, reduction compared to DMSO (BM-MDSCs [2]; 3 μM): 1.5 times
- arginase-I levels, reduction compared to DMSO (BM-MDSCs [2]; 10 μM): 2.75 times
- iNOS production, reduction compared to DMSO (BM-MDSCs [2]; 10 μM): 1.35 times
- expression of Arginase 1 and iNOS (Western blot) (BM-MDSCs [2]; bone marrow derived murine MDSC, descending concentrations (FIG. 4)): decreases the expression of Arginase 1 protein
- percent proliferation of CD3 T cells co-cultured with treated BM-MDSCs (BM-MDSCs [3]; BM-MDSCs treated with 3 μM): 64.99%
- percent proliferation of CD3 T cells co-cultured with treated BM-MDSCs (BM-MDSCs [3]; BM-MDSCs treated with 10 μM): 62.49%
- T cell proliferation in mixed culture of MDSC and T cells (BM-MDSCs [3]; FIG. 6 Panel A): allows T cells to proliferate (multiply) better
- average expression of genes of glucose, fatty acid, lipid metabolism and cytotoxicity (heatmap) (CD8 T cells): dramatic increase in gene expression
- total number of CD8 T cells compared to DMSO control (CD8 T cells): increase in total CD8
- fraction of CD8 T cells identified as naïve (CD8 T cells; DMSO 26.6%): 16.2%
- fraction of CD8 T cells identified as early-effector (CD8 T cells; DMSO 27.8%): 41.3%
- fraction of CD8 T cells identified as effector (CD8 T cells; DMSO 45.6%): 42.5%
- tumor growth rate after adoptive transfer of pre-treated pmel-I CD8 T cells (B16): significant reduction in the tumor growth rate
- anti-tumor response (tumor growth rates) compared to the MC control group (B16-OVA): significantly stronger anti-tumor response

Reference: patent US20240358705A1, “COMPOSITIONS AND METHODS FOR TREATMENT OF CANCER” (Board of Supervisors of Louisiana State University and …, priority 2021, published 2024)
